Source: patent EP0499662A1, “Compositions with enhanced penetration” (WARNER-LAMBERT COMPANY, priority 1991, dated 1992)

Assay: in vitro permeation (diffusion) study across hairless mouse skin

Structure (SMILES): C[C@]12CCC(=O)C=C1CC[C@@H]1[C@@H]2[C@@H](O)C[C@@]2(C)[C@H]1CC[C@]2(O)C(=O)CO [Hydrocortisone, hydrocortisone]
- Avg. Flux (formulation EtOH, saturated with the drug except for verapamil, average of the flux values at each sampling time within 24 hours): 0.64 µg/cm^2/h
- Avg. Flux (formulation EtOH:Mig 20:80, saturated with the drug except for verapamil, average within 24 hours): 10.24 µg/cm^2/h
- Avg. Flux (formulation Mig (Miglyol 840), saturated with the drug except for verapamil, average within 24 hours): 1.49 µg/cm^2/h
